Measurements from publication PMC5845541, “Novel Sodium Channel Inhibitor From Leeches” (Frontiers in Pharmacology, 2018).
Positions of bridges follow the written chain, without caps; N, C: chain ends. Residues, ends and D or L forms follow the SMILES beside them.

Key:
[1] = biological target: T1, mNaV1.9 (mouse NaV1.9) (Mus musculus, UniProt Q9R053); experiment: cell-based; conditions: NaV1.8-null mouse small DRG neurons, 300 nM TTX; 100-ms step to –40 mV from holding potential –110 mV; variable slope fit; room temperature; mean ± SEM; read-out: IC50 for inhibition of mNaV1.9 currents
T1 construct: Representative current traces of mNaV1.9, recorded from the NaV1.8-null mouse small DRG neurons; endogenous in cells; host or cells: small DRG neurons of NaV1.8-null mice
T1 sequence (Q9R053 whole entry): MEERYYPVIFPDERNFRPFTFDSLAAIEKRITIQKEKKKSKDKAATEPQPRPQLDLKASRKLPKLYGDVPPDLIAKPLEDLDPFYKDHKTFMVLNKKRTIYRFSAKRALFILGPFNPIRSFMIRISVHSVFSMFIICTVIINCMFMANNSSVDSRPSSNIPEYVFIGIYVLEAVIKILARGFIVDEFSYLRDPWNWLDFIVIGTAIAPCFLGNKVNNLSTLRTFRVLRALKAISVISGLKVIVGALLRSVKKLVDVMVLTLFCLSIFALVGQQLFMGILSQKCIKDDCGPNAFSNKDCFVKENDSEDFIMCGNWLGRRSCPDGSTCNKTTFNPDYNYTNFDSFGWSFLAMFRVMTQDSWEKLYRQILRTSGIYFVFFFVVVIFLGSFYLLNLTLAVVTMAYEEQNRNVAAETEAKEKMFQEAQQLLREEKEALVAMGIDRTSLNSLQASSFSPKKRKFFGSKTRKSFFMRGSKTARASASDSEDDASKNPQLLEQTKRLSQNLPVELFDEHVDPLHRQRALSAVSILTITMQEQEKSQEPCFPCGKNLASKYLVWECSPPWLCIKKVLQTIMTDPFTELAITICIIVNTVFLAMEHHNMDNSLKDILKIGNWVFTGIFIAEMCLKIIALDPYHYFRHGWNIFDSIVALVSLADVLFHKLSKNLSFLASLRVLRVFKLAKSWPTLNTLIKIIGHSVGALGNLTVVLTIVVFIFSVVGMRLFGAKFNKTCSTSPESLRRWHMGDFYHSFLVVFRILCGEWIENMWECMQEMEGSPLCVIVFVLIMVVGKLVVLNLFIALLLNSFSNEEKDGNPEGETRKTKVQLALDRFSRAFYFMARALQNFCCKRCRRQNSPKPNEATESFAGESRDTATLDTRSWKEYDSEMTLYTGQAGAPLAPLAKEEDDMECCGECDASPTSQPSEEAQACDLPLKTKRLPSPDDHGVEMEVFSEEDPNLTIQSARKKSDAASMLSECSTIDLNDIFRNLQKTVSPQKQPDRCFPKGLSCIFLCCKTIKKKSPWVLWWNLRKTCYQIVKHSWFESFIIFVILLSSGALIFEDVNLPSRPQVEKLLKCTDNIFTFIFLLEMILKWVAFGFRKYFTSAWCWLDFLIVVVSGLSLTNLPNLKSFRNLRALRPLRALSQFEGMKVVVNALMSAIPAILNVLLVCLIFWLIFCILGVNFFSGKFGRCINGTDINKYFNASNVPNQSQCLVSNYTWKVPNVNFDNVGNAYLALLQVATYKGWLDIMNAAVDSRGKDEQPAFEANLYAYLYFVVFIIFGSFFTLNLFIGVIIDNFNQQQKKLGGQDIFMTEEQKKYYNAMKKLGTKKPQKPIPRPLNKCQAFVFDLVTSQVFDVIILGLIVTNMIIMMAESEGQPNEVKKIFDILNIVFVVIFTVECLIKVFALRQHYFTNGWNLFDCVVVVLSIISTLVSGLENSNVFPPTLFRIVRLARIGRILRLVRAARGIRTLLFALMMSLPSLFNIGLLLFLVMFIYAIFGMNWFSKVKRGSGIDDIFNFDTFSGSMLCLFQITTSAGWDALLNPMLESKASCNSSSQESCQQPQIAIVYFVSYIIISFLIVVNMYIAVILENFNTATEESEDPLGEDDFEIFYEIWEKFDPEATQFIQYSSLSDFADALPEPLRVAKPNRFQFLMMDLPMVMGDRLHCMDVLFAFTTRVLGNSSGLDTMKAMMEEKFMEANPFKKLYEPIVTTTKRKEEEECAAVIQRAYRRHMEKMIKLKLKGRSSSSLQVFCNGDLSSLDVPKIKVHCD

[2] = biological target: rNaV1.8 (rat NaV1.8) (Rattus norvegicus, UniProt Q62968); experiment: cell-based
Chain of rNaV1.8 (rat NaV1.8) (Q62968 whole entry): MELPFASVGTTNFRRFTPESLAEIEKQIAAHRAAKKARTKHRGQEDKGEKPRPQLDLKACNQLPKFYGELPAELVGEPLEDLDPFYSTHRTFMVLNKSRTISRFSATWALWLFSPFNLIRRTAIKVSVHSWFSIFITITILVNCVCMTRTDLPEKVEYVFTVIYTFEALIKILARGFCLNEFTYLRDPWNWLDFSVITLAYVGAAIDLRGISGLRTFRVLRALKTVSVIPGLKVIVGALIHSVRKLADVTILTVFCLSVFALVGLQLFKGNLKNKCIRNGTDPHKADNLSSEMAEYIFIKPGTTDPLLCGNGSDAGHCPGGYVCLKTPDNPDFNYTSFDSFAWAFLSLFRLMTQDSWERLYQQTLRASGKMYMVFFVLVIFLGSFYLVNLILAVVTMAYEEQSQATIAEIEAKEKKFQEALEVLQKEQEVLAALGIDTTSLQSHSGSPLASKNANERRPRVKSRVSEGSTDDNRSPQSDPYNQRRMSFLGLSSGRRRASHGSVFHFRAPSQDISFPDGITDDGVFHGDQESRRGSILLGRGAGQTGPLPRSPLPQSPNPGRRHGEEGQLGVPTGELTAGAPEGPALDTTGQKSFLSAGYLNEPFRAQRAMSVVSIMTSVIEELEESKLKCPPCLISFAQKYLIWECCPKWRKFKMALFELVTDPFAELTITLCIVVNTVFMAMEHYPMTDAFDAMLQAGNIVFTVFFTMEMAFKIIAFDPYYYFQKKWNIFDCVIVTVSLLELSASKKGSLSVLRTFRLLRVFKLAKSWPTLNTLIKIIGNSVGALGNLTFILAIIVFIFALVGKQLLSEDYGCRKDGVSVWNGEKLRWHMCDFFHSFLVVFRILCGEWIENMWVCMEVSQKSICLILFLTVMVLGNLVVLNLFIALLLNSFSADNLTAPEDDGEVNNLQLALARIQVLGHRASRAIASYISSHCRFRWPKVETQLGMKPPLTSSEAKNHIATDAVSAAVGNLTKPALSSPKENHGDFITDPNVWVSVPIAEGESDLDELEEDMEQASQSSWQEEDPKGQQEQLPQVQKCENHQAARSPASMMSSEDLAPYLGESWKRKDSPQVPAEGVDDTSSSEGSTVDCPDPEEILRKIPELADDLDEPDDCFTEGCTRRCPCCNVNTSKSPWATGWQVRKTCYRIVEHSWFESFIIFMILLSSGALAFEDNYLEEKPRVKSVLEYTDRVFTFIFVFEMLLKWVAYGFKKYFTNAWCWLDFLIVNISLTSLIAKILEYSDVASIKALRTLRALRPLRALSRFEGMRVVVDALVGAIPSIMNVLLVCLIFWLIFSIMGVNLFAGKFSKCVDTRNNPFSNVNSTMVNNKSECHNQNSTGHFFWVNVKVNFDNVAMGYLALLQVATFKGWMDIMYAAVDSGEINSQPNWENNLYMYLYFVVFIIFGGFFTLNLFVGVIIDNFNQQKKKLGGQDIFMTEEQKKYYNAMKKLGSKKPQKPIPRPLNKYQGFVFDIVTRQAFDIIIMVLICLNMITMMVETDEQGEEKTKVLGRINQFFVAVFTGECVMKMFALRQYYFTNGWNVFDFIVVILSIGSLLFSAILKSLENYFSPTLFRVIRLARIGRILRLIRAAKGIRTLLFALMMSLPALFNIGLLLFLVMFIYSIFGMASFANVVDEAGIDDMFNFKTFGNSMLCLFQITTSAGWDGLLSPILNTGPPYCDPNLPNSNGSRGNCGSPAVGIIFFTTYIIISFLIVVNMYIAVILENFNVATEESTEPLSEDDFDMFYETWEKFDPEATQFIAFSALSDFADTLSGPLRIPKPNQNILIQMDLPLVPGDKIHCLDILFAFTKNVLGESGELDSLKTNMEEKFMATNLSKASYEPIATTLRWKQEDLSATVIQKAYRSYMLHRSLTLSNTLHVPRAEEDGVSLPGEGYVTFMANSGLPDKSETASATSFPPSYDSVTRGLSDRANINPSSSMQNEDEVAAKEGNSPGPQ

CC[C@H](C)[C@H](NC(=O)[C@H](CCSC)NC(=O)[C@@H]1CCCN1C(=O)[C@@H](NC(=O)[C@@H]1CSSC[C@@H]2NC(=O)[C@H](CCC(=O)O)NC(=O)[C@H](Cc3c[nH]c4ccccc34)NC(=O)[C@H](Cc3ccc(O)cc3)NC(=O)[C@H](CCC(=O)O)NC(=O)[C@H](CCCCN)NC(=O)[C@@H](NC(=O)[C@H](C)N)CSSC[C@H](NC(=O)[C@H](Cc3ccccc3)NC(=O)[C@H](CC(C)C)NC(=O)[C@H](Cc3ccccc3)NC(=O)[C@H](C)NC(=O)CNC2=O)C(=O)N[C@@H]([C@@H](C)CC)C(=O)N[C@@H](CCC(=O)O)C(=O)NCC(=O)N[C@@H]([C@@H](C)CC)C(=O)N1)C(C)C)C(N)=O [HSTX-I] (H-ACKEYWECGAFLFCIEGICVPMI-NH2; disulfide 2-14, 8-19)
IC50 [1]: ~3.3 µM | IC50 [2]: ~2.44 µM
